{
  "source": "patent US20220144847A1",
  "about": "“HETEROCYCLIC COMPOUND, PHARMACEUTICAL COMPOSITION COMPRISING SAME, PREPARATION METHOD THEREFOR, AND USE THEREOF” (Sichuan Kelun-Biotech Biopharmaceutical Co., Ltd., priority 2019, published 2022)",
  "format_in_all_cases": "biochemical",
  "key": {"RET-CCDC6": {"target": "T1, RET-CCDC6 (Homo sapiens, UniProt P07949)", "T1 construct": "CCDC6 fusion partner (Q16204 for human); the other entry of the earlier key: CCDC6 (Q16204, Coiled-coil domain-containing protein 6)", "T1 sequence (P07949 with tags, fused parts or gaps)": "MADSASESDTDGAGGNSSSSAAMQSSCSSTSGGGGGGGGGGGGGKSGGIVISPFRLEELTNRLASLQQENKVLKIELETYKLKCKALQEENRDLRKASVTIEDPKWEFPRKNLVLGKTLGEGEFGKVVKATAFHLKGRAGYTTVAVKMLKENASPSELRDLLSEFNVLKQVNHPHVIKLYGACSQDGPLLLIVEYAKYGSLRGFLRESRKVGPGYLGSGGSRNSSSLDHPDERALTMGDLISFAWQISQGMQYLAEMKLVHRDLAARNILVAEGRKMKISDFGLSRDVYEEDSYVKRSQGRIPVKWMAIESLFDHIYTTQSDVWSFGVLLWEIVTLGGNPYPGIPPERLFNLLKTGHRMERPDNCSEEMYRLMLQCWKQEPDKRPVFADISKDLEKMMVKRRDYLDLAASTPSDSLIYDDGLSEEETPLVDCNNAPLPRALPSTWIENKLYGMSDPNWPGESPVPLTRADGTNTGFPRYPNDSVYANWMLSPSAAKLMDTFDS", "assay": "RET inhibition experiment (HTRF KinEASE-TK kit), fusion-type RET enzyme", "details": "read-out: The IC50 (nM) for inhibiting RET-CCDC6", "experimental": "(§1) Experimental method: […] After incubation at room temperature for 40 min, TK antibody-cryptate and streptavidin-XL665 were added, and the test was performed after incubation at room temperature for 45 min. With the solvent group (DMSO) as the negative control and the buffer group (without RET enzyme) as the blank control, the relative inhibitory activity percentages (i.e., inhibition rates) of different concentrations of the compounds were computed as per the following formula: […] The relative inhibitory activity percentages of different concentrations of the compounds were plotted with respect to the compound concentrations, and the curve was fitted according to a four-parameter model to compute the IC50 value as per the following formula: y=min+(max-min)/(1+(x/IC50)^(-Hillslope)) where y is the relative inhibitory activity percentage, max is the maximum value of the fitted curve, min is the minimum value of the fitted curve, x is the logarithmic concentration of the compound, and Hillslope is the slope of the curve."}, "RET-V804L": {"target": "RET-V804L (Homo sapiens, UniProt P07949, V804L)", "sequence (P07949 29-1114 V804L)": "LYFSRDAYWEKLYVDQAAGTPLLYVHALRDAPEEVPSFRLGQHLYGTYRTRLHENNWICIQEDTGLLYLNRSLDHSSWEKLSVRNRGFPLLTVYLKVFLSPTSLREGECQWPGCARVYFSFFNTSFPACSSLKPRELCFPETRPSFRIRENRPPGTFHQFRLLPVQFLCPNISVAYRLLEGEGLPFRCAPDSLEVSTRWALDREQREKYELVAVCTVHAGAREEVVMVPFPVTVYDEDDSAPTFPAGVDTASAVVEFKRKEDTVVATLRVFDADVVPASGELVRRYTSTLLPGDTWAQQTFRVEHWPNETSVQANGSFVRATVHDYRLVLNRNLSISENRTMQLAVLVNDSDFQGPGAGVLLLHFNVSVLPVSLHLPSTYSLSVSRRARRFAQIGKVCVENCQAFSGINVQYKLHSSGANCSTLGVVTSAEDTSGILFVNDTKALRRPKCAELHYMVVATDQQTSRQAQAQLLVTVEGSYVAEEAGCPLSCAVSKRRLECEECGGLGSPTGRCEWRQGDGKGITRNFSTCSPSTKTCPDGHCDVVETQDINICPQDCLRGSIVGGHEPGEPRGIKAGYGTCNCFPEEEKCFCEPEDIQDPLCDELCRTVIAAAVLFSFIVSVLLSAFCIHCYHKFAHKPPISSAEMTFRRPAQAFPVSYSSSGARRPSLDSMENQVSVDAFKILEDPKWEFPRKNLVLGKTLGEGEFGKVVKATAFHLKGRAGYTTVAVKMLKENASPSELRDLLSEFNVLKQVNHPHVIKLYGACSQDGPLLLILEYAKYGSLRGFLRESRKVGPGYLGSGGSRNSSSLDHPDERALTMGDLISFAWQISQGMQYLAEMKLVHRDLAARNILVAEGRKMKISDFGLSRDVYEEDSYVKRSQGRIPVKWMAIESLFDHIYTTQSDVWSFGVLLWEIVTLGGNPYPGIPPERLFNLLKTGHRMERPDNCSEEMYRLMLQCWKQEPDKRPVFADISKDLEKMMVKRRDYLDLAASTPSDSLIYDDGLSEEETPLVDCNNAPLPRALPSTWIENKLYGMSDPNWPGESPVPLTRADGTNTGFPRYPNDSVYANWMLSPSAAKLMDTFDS", "assay": "RET inhibition experiment (HTRF KinEASE-TK kit), mutant RET-V804L", "details": "read-out: The IC50 (nM) for inhibiting RET-V804L", "experimental": "as §1"}, "RET-V804M": {"target": "RET-V804M (Homo sapiens, UniProt P07949, V804M)", "sequence (P07949 29-1114 V804M)": "as the sequence (P07949 29-1114 V804L) above, with L776M counted along it", "assay": "RET inhibition experiment (HTRF KinEASE-TK kit), mutant RET-V804M", "details": "read-out: The IC50 (nM) for inhibiting V804M", "procedure,_shortened": "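Enzyme was pre-incubated with compound at room temperature for 30 min, then substrate and ATP were added for a 40 min reaction. HTRF signal was read after 45 min with TK antibody-cryptate and streptavidin-XL665. IC50 came from a four-parameter fit of percent inhibition against DMSO and no-enzyme controls.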"}},
  "data": [
    {"smiles": "Cc1cc(Nc2cc(C)[nH]n2)nc(-c2ccc(N3CC4CC(C3)N4Cc3ccc(-n4cc(F)cn4)nc3)nc2)n1", "note": "[Compound 17, 2-(6-(6-((6-(4-fluoro-1H-pyrazol-1-yl)pyridin-3-yl)methyl)-3,6-diazabicyclo[3.1.1]heptan-3-yl)pyridin-3-yl)-6-methyl-N-(5-methyl-1H-pyrazol-3-yl)pyrimidin-4-amine]", "values": [
      {"measurement": "IC50", "setting": "RET-CCDC6", "result": "2.5 ± 0.55", "unit": "nM"},
      {"measurement": "IC50", "setting": "RET-V804L", "result": "6.54 ± 2.43", "unit": "nM"},
      {"measurement": "IC50", "setting": "RET-V804M", "result": "1.03 ± 0.47", "unit": "nM"}
    ]}
  ]
}
